Measured values as given in patent publication US11472791B2 (Incyte Corporation, priority 2019, dated 2022).

The compounds below were run against CDK2/Cyclin E1 (Homo sapiens (Human), UniProt P24941) (assay: CDK2/Cyclin E1 HTRF enzyme activity assay). Details: 1 mM ATP.
Type: biochemical
Description: Assays are conducted in white 384-well polystyrene plates in a final reaction volume of 8 μL. […] HTRF signals are read after 1 hour at room temperature on a PHERAstar FS plate reader (BMG Labtech). Data is analyzed with IDBS XLFit and GraphPad Prism 5.0 software using a three or four parameter dose response curve to determine IC50 for each compound.

SMILES	IC50
CS(=O)(=O)N1CCC(Nc2ncc(C#N)c(-c3cnn(-c4ccc(CN[C@H]5C[C@@H](O)C5)cc4Cl)c3)n2)CC1 [Example 162, 4-(1-(2-Chloro-4-((((1s,3s)-3-hydroxycyclobutyl)amino)methyl)phenyl)-1H-pyrazol-4-yl)-2-((1-(methylsulfonyl)piperidin-4-yl)amino)pyrimidine-5-carbonitrile]	< 50 nM
CO[C@H]1C[C@@H](NCc2ccc(-n3cc(-c4nc(NC5CCN(S(C)(=O)=O)CC5)ncc4C#N)cn3)c(Cl)c2)C1 [Example 163, 4-(1-(2-Chloro-4-((((1s,3s)-3-methoxycyclobutyl)amino)methyl)phenyl)-1H-pyrazol-4-yl)-2-((1-(methylsulfonyl)piperidin-4-yl)amino)pyrimidine-5-carbonitrile]	< 50 nM
COC(=O)N1CCC[C@H](NCc2ccc(-n3cc(-c4nc(NC5CCN(S(C)(=O)=O)CC5)ncc4C#N)cn3)c(Cl)c2)C1 [Example 167, Methyl (S)-3-((3-chloro-4-(4-(5-cyano-2-((1-(methylsulfonyl)piperidin-4-yl)amino)pyrimidin-4-yl)-1H-pyrazol-1-yl)benzyl)amino)piperidine-1-carboxylate]	< 50 nM
CC(=O)N1CC[C@H](NCc2ccc(-n3cc(-c4nc(NC5CCN(S(C)(=O)=O)CC5)ncc4C#N)cn3)c(Cl)c2)C1 [Example 169, (S)-4-(1-(4-(((1-Acetylpyrrolidin-3-yl)amino)methyl)-2-chlorophenyl)-1H-pyrazol-4-yl)-2-((1-(methylsulfonyl)piperidin-4-yl)amino)pyrimidine-5-carbonitrile]	< 50 nM
CC(=O)N1CC[C@@H](NCc2ccc(-n3cc(-c4nc(NC5CCN(S(C)(=O)=O)CC5)ncc4C#N)cn3)c(Cl)c2)C1 [Example 170, (R)-4-(1-(4-(((1-Acetylpyrrolidin-3-yl)amino)methyl)-2-chlorophenyl)-1H-pyrazol-4-yl)-2-((1-(methylsulfonyl)piperidin-4-yl)amino)pyrimidine-5-carbonitrile]	< 50 nM
COC(=O)N1CC(NCc2ccc(-n3cc(-c4nc(NC5CCN(S(C)(=O)=O)CC5)ncc4C#N)cn3)c(Cl)c2)C1 [Example 172, Methyl 3-((3-chloro-4-(4-(5-cyano-2-((1-(methylsulfonyl)piperidin-4-yl)amino)pyrimidin-4-yl)-1H-pyrazol-1-yl)benzyl)amino)azetidine-1-carboxylate]	< 50 nM
CS(=O)(=O)N1CCC(Nc2ncc(C#N)c(-c3cnn(-c4ccc(CN[C@H]5CC[C@@](C)(O)CC5)cc4Cl)c3)n2)CC1 [Example 173, 4-(1-(2-Chloro-4-((((1s,4s)-4-hydroxy-4-methylcyclohexyl)amino)methyl)phenyl)-1H-pyrazol-4-yl)-2-((1-(methylsulfonyl)piperidin-4-yl)amino)pyrimidine-5-carbonitrile]	< 50 nM
CS(=O)(=O)N1CCC(Nc2ncc(C#N)c(-c3cnn(-c4ccc(CN[C@H]5CC[C@](C)(O)CC5)cc4Cl)c3)n2)CC1 [Example 174, 4-(1-(2-Chloro-4-((((1r,4r)-4-hydroxy-4-methylcyclohexyl)amino)methyl)phenyl)-1H-pyrazol-4-yl)-2-((1-(methylsulfonyl)piperidin-4-yl)amino)pyrimidine-5-carbonitrile]	< 50 nM
CCS(=O)(=O)N1CCC(Nc2ncc(C#N)c(-c3cnn(-c4ccc(CN[C@H]5CC[C@@](C)(O)CC5)cc4Cl)c3)n2)CC1 [Example 175, 4-(1-(2-Chloro-4-((((1s,4s)-4-hydroxy-4-methylcyclohexyl)amino)methyl)phenyl)-1H-pyrazol-4-yl)-2-((1-(ethylsulfonyl)piperidin-4-yl)amino)pyrimidine-5-carbonitrile]	< 50 nM
CS(=O)(=O)N1CCC(Nc2ncc(C#N)c(-c3cnn(-c4ccc(CN[C@H]5CC[C@](O)(C(F)(F)F)CC5)cc4Cl)c3)n2)CC1 [Example 177, 4-(1-(2-Chloro-4-((((1s,4s)-4-hydroxy-4-(trifluoromethyl)cyclohexyl)amino)methyl)phenyl)-1H-pyrazol-4-yl)-2-((1-(methylsulfonyl)piperidin-4-yl)amino)pyrimidine-5-carbonitrile]	< 50 nM
CS(=O)(=O)N1CCC(Nc2ncc(C#N)c(-c3cnn(-c4ccc(CN[C@@H]5CCCC[C@H]5O)cc4Cl)c3)n2)CC1 [Example 178, 4-(1-(2-Chloro-4-((((1R,2R)-2-hydroxycyclohexyl)amino)methyl)phenyl)-1H-pyrazol-4-yl)-2-((1-(methylsulfonyl)piperidin-4-yl)amino)pyrimidine-5-carbonitrile]	< 50 nM
CS(=O)(=O)N1CCC(Nc2ncc(C#N)c(-c3cnn(-c4ccc(CN[C@@H]5CCCC[C@@H]5O)cc4Cl)c3)n2)CC1 [Example 179, 4-(1-(2-Chloro-4-((((1R,2S)-2-hydroxycyclohexyl)amino)methyl)phenyl)-1H-pyrazol-4-yl)-2((1-(methylsulfonyl)piperidin-4-yl)amino)pyrimidine-5-carbonitrile]	< 50 nM
CS(=O)(=O)N1CCC(Nc2ncc(C#N)c(-c3cnn(-c4ccc(CN[C@H]5CCC[C@H](O)C5)cc4Cl)c3)n2)CC1 [Example 181, 4-(1-(2-Chloro-4-((((1S,3S)-3-hydroxycyclohexyl)amino)methyl)phenyl)-1H-pyrazol-4-yl)-2((1-(methylsulfonyl)piperidin-4-yl)amino)pyrimidine-5-carbonitrile]	< 50 nM
CS(=O)(=O)N1CCC(Nc2ncc(C#N)c(-c3cnn(-c4ccc(CN[C@H]5CC[C@H](O)CC5)cc4Cl)c3)n2)CC1 [Example 182, 4-(1-(2-Chloro-4-((((1r,4r)-4-hydroxycyclohexyl)amino)methyl)phenyl)-1H-pyrazol-4-yl)-2-((1-(methylsulfonyl)piperidin-4-yl)amino)pyrimidine-5-carbonitrile]	< 50 nM
CS(=O)(=O)N1CCC(Nc2ncc(C#N)c(-c3cnn(-c4ccc(CNC5CCC(C#N)CC5)cc4Cl)c3)n2)CC1 (stereo not shown) [Example 183, 4-(1-(2-Chloro-4-(((4-cyanocyclohexyl)amino)methyl)phenyl)-1H-pyrazol-4-yl)-2-((1-(methylsulfonyl)piperidin-4-yl)amino)pyrimidine-5-carbonitrile]	< 50 nM

Now from value to compound:

IC50	SMILES
< 50 nM	CS(=O)(=O)N1CCC(Nc2ncc(C#N)c(-c3cnn(-c4ccc(CNC5(CO)CC5)cc4Cl)c3)n2)CC1 [Example 159, 4-(1-(2-Chloro-4-(((1-(hydroxymethyl)cyclopropyl)amino)methyl)phenyl)-1H-pyrazol-4-yl)-2-((1-(methylsulfonyl)piperidin-4-yl)amino)pyrimidine-5-carbonitrile]
< 50 nM	CC(C)(NCc1ccc(-n2cc(-c3nc(NC4CCN(S(C)(=O)=O)CC4)ncc3C#N)cn2)c(Cl)c1)C(N)=O [Example 160, 2-((3-Chloro-4-(4-(5-cyano-2-((1-(methylsulfonyl)piperidin-4-yl)amino)pyrimidin-4-yl)-1H-pyrazol-1-yl)benzyl)amino)-2-methylpropanamide]
< 50 nM	CS(=O)(=O)N1CCC(Nc2ncc(C#N)c(-c3cnn(-c4ccc(CN[C@H]5C[C@H](O)C5)cc4Cl)c3)n2)CC1 [Example 161, 4-(1-(2-Chloro-4-((((1r,3r)-3-hydroxycyclobutyl)amino)methyl)phenyl)-1H-pyrazol-4-yl)-2-((1-(methylsulfonyl)piperidin-4-yl)amino)pyrimidine-5-carbonitrile]
< 50 nM	CS(=O)(=O)N1CCC(Nc2ncc(C#N)c(-c3cnn(-c4ccc(CN[C@H]5C[C@@H](C#N)C5)cc4Cl)c3)n2)CC1 [Example 164, 4-(1-(2-Chloro-4-((((1s,3s)-3-cyanocyclobutyl)amino)methyl)phenyl)-1H-pyrazol-4-yl)-2-((1-(methylsulfonyl)piperidin-4-yl)amino)pyrimidine-5-carbonitrile]
< 50 nM	CCS(=O)(=O)N1CCC(Nc2ncc(C#N)c(-c3cnn(-c4ccc(CNc5cnn(C)c5)cc4Cl)c3)n2)CC1 [Example 165, 4-(1-(2-Chloro-4-(((1-methyl-1H-pyrazol-4-yl)amino)methyl)phenyl)-1H-pyrazol-4-yl)-2-((1-(ethylsulfonyl)piperidin-4-yl)amino)pyrimidine-5-carbonitrile]
< 50 nM	COC(=O)NC1CCCCC1NCc1ccc(-n2cc(-c3nc(NC4CCN(S(C)(=O)=O)CC4)ncc3C#N)cn2)c(Cl)c1 (stereo not shown) [Example 166, Methyl (2-((3-chloro-4-(4-(5-cyano-2-((1-(methylsulfonyl)piperidin-4-yl)amino)pyrimidin-4-yl)-1H-pyrazol-1-yl)benzyl)amino)cyclohexyl)carbamate]
< 50 nM	COC(=O)N1CCC[C@@H](NCc2ccc(-n3cc(-c4nc(NC5CCN(S(C)(=O)=O)CC5)ncc4C#N)cn3)c(Cl)c2)C1 [Example 168, Methyl (R)-3-((3-chloro-4-(4-(5-cyano-2-((1-(methylsulfonyl)piperidin-4-yl)amino)pyrimidin-4-yl)-1H-pyrazol-1-yl)benzyl)amino)piperidine-1-carboxylate]
< 50 nM	CC(=O)N1CC(NCc2ccc(-n3cc(-c4nc(NC5CCN(S(C)(=O)=O)CC5)ncc4C#N)cn3)c(Cl)c2)C1 [Example 171, 4-(1-(4-(((1-Acetylazetidin-3-yl)amino)methyl)-2-chlorophenyl)-1H-pyrazol-4-yl)-2-((1-(methylsulfonyl)piperidin-4-yl)amino)pyrimidine-5-carbonitrile]
< 50 nM	CCS(=O)(=O)N1CCC(Nc2ncc(C#N)c(-c3cnn(-c4ccc(CN[C@H]5CC[C@](C)(O)CC5)cc4Cl)c3)n2)CC1 [Example 176, 4-(1-(2-Chloro-4-((((1r,4r)-4-hydroxy-4-methylcyclohexyl)amino)methyl)phenyl)-1H-pyrazol-4-yl)-2-((1-(ethylsulfonyl)piperidin-4-yl)amino)pyrimidine-5-carbonitrile]
< 50 nM	CS(=O)(=O)N1CCC(Nc2ncc(C#N)c(-c3cnn(-c4ccc(CN[C@H]5CCC[C@@H](O)C5)cc4Cl)c3)n2)CC1 [Example 180, 4-(1-(2-Chloro-4-((((1S,3R)-3-hydroxycyclohexyl)amino)methyl)phenyl)-1H-pyrazol-4-yl)-2((1-(methylsulfonyl)piperidin-4-yl)amino)pyrimidine-5-carbonitrile]
